Laboratory results published in ChEMBL document CHEMBL1140688, “Sulfenamides as prodrugs of NH-acidic compounds: a new prodrug option for the amide bond” (Bioorg Med Chem Lett, 2007).

Tests used:
Type in all cases: physicochemical
Conditions in all cases: buffer
[1] = Chemical stability assessed as half life at pH 6.0
[2] = Chemical stability assessed as half life at pH 6.5
[3] = Chemical stability assessed as half life at pH 7.0

**Q.** With `CCOC(=O)[C@@H](N)CSNC(=O)N1c2ccccc2C=Cc2ccccc21` as the compound, how does the half-life [1] read?
**A.** Its half-life is 214 h.

**Q.** And the half-life [2]?
**A.** The half-life was 81.6 h.

**Q.** What about the half-life [3] of the same compound?
**A.** Its half-life is 50.4 h.
